{"source": "patent US12274696B2", "about": "“Methods of administering nalbuphine” (Trevi Therapeutics, Inc., priority 2020, dated 2025)", "key": {"clinical": {"assay": "clinical", "conditions": "human, plasma, oral", "text": "(§1) Healthy subjects receive a single dose of drug at the highest dose studied in the liver-impaired subjects in order to make relative comparison to the PK aspects of Nalbuphine extended release (ER).\n(§2) Cohort 1 consists of subjects with impaired hepatic function divided into three groups with some subjects in each of the mild Child-Pugh A category (Group 1), the moderate Child-Pugh B category (Group 2), and the severe Child-Pugh category C (Group 3). Cohort 2-4 consists of subjects with impaired hepatic function divided into two groups with some subjects in each of the mild Child-Pugh A category (Group 1), and the moderate Child-Pugh B category (Group 2).\n(§3) Dosing: Subjects receive a single ascending dose, under fasting condition, at the following dose levels:\n(§4) Each of the cohorts is dosed sequentially starting with the lowest dose. Subjects with mild or moderate hepatic impairment enrolled in Cohort 1 are optionally enrolled in Cohorts 2, 3, and 4. For each dose cohort, enrollment of subjects with mild or moderate hepatic impairment is done in parallel. An evaluation of safety and tolerability of the combined mild and moderate hepatic impairment subject data is done at each dose level before proceeding to the next dose level.\n(§5) Blood: Blood from the patients of each cohort is collected in K2EDTA tubes. The plasma fractions are separated by centrifugation and stored frozen until analysis. Blood samples are collected at the following time points: 0 h (prior to the dose), 1.5, 3, 5, 7, 9, 12, 24, 36, 48, and 72 h after the dose."}, "[1]": {"conditions": "cohorts 1-4", "text": "as §1, §2, §3, §4, §5"}}, "data": [{"smiles": "Cl.Oc1ccc2c3c1OC1[C@@H](O)CC[C@@]4(O)[C@@H](C2)N(CC2CCC2)CC[C@]314", "note": "(stereo partly drawn) [nalbuphine, 17-(cyclobutylmethyl)-4,5α-epoxymorphinian-3, 6α, 14-triol, hydrochloride]", "values": [{"measurement": "AUC(0-t)", "setting": "clinical; 27 mg, AUC0-t Mean, 27 mg single dose, Cohort 1, mild hepatic impairment (Child Pugh A)", "result": 48.9, "unit": "ng·h/mL"}, {"measurement": "AUC(0-t)", "setting": "clinical; 27 mg, AUC0-t Mean, 27 mg single dose, Cohort 1, moderate hepatic impairment (Child Pugh B)", "result": 244, "unit": "ng·h/mL"}, {"measurement": "AUC(0-t)", "setting": "clinical; 27 mg, AUC0-t Mean, 27 mg single dose, Cohort 1, severe hepatic impairment (Child Pugh C)", "result": 489, "unit": "ng·h/mL"}, {"measurement": "Cmax", "setting": "clinical; 27 mg, Cmax Mean, 27 mg single dose, Cohort 1, mild hepatic impairment (Child Pugh A)", "result": 3.56, "unit": "ng/mL"}, {"measurement": "Cmax", "setting": "clinical; 27 mg, Cmax Mean, 27 mg single dose, Cohort 1, moderate hepatic impairment (Child Pugh B)", "result": 14.6, "unit": "ng/mL"}, {"measurement": "Cmax", "setting": "clinical; 27 mg, Cmax Mean, 27 mg single dose, Cohort 1, severe hepatic impairment (Child Pugh C)", "result": 28.3, "unit": "ng/mL"}, {"measurement": "AUC(0-t)", "setting": "clinical; 162 mg, mean AUC0-t, 162 mg single dose, Cohort 4, mild hepatic impairment (Child Pugh A)", "result": 375, "unit": "ng·h/mL"}, {"measurement": "AUC(0-t)", "setting": "clinical; 162 mg, mean AUC0-t, 162 mg single dose, Cohort 4, moderate hepatic impairment (Child Pugh B)", "result": 1230, "unit": "ng·h/mL"}, {"measurement": "Cmax", "setting": "clinical; 162 mg, mean Cmax, 162 mg single dose, Cohort 4, mild hepatic impairment (Child Pugh A)", "result": 19.9, "unit": "ng/mL"}, {"measurement": "Cmax", "setting": "clinical; 162 mg, mean Cmax, 162 mg single dose, Cohort 4, moderate hepatic impairment (Child Pugh B)", "result": 65.4, "unit": "ng/mL"}, {"measurement": "Half-life across cohorts", "setting": "[1]", "result": "similar"}]}]}
